Reference: PMC10831071, “Reaction hijacking inhibition of Plasmodium falciparum asparagine tRNA synthetase” (Nature Communications, 2024)
“And” between values parts separate entries of the source, which are not always exact repeats. Identical values can stand only once. Like-named read-outs stand apart in the source and are kept apart here.

Assays:
[1] = system: PfAlaRS cKD P. falciparum line; test: microbe, parasite or virus in culture; format: cell-based, Plasmodium falciparum; settings: for Growth: PfAlaRS K/D; for IC50: PfAlaRS line, individual repeats
Source text: (§1) Conditional knockdown (cKD) P. falciparum lines were generated for the cytosolic AsnRS (PF3D7_0211800), cytosolic AlaRS (PF3D7_1367700), cytosolic GlyRS (GlyRS; PF3D7_1420400), PfNT4 (PF3D7_0103200), P. falciparum glutamate dehydrogenase 3 (GDH3; PF3D7_0802000), and P. falciparum carbonic anhydrase (CA, PF3D7_1140000) by fusing the coding sequences and non-coding RNA aptamer sequences in the 3’-UTR, permitting translation regulation using the TetR-DOZI system[59],[60]. Gene editing was achieved by CRISPR/SpCas9 using the linear pSN054 vector that contains cloning sites for the left homology region (LHR) and the right homology region (RHR) as well a target-specific guide RNA under control of the T7 promoter. Cloning into the pSN054 donor vector was carried out following described procedures[59],[60]. The vector includes V5-2xHA epitope tags, a 10x tandem array of TetR aptamers upstream of an Hsp86 3’UTR, and a multicistronic cassette for expression of TetR-DOZI (translation regulation), blasticidin S-deaminase (selection marker) and a Renilla luciferase (RLuc) reporter. All primer and synthetic fragment sequences that were generated using the BioXP™ system and IDT gBlocks™ are included in Supplementary Table 9. The final constructs were sequence-verified and further confirmed by restriction digests.
(§2) Transfection into Cas9- and T7 RNA polymerase-expressing NF54 parasites was carried out by pre-loading red blood cells (RBCs) with the donor vector[61]. […] Cultures were monitored by Giemsa smears and RLuc measurements.
(§3) DMSO- and dihydroartemisinin-treatment (0.5 µM) served as reference controls.

[2] = system: PfCA cKD P. falciparum line; test: microbe, parasite or virus in culture; format: cell-based, Plasmodium falciparum; settings: for Growth: PfCA K/D
Source text: as §1, §2, §3

PfAsnRS = PfAsnRS (Plasmodium falciparum, UniProt O96198); test: biochemical
PfAsnRS, sequence (O96198 entry or part of it): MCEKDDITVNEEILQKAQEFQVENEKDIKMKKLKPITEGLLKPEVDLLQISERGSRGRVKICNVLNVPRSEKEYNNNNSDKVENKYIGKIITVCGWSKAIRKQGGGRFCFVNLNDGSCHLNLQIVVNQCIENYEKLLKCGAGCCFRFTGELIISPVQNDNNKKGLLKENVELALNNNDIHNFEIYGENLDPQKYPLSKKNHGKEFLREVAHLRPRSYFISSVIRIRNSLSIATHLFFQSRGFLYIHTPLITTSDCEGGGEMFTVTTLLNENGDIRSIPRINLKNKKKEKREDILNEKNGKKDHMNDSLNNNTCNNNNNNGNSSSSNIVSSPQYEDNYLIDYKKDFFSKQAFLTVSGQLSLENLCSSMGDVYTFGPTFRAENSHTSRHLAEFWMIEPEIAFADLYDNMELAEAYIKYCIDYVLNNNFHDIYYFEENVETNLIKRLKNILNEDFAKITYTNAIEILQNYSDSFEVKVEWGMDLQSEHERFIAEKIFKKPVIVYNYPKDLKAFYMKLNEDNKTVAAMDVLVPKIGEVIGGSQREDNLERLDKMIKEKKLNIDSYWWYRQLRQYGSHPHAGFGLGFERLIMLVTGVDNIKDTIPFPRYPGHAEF

Nc1ncnc2cc(-c3cccc(S(N)(=O)=O)c3)sc12 [OSM-S-106]
Growth ([1]; 3.125 nM OSM-S-106, 500 nM aTc): 106.745 and 98.2451 and 120.926
Growth ([1]; 6.25 nM OSM-S-106, 500 nM aTc): 90.3733 and 84.6837 and 109.578
Growth ([1]; 12.5 nM OSM-S-106, 500 nM aTc): 88.5694 and 88.7266 and 97.0041
Growth ([1]; 25 nM OSM-S-106, 500 nM aTc): 83.1875 and 95.5017 and 98.3659
Growth ([1]; 50 nM OSM-S-106, 500 nM aTc): 55.6885 and 91.3478 and 80.2088
Growth ([1]; 200 nM OSM-S-106, 500 nM aTc): 76.3648
Growth ([1]; 200 nM OSM-S-106, […] aTc): 67.5946
IC50 ([1]; 1 nM, […] aTc or no aTc): 46.2 nM
IC50 ([1]; 500 nM aTc): 99.7 nM
IC50 ([1]; Plasmodium falciparum, 1 nM, […] aTc or no aTc): 56.8 nM
IC50 ([1]; Plasmodium falciparum, 500 nM aTc): 78.4 nM
Growth ([2]; 3.125 nM OSM-S-106, 500 nM aTc): 126.787 and 158.672 and 147.974
Growth ([2]; 3.125 nM OSM-S-106, no aTc): 126.423 and 113.544 and 101.394
Growth ([2]; 6.25 nM OSM-S-106, 500 nM aTc): 92.3654 and 131.4 and 126.99
Growth ([2]; 6.25 nM OSM-S-106, no aTc): 110.949 and 103.392 and 134.667
Growth ([2]; 12.5 nM OSM-S-106, 500 nM aTc): 103.771 and 150.344 and 136.72
Growth ([2]; 12.5 nM OSM-S-106, no aTc): 107.898 and 113.66 and 101.587
Growth ([2]; 25 nM OSM-S-106, 500 nM aTc): 66.7109 and 104.005 and 106.363
Growth ([2]; 25 nM OSM-S-106, no aTc): 55.2693 and 67.1039 and 67.9395
Growth ([2]; 50 nM OSM-S-106, 500 nM aTc): 39.8979 and 23.9771 and 45.5735
Growth ([2]; 50 nM OSM-S-106, no aTc): 31.2463 and 15.9234 and 30.4793
Growth ([2]; 100 nM OSM-S-106, 500 nM aTc): 11.4398
Growth ([2]; 100 nM OSM-S-106, no aTc): 10.8379 and 9.475 and 12.418
Growth ([2]; 200 nM OSM-S-106, 500 nM aTc): 5.818 and 8.3279 and 9.44
Growth ([2]; 200 nM OSM-S-106, no aTc): 6.983 and 9.353 and 10.7306
Growth ([2]; 400 nM OSM-S-106, no aTc): 0.8215 and 0.8297 and 1.231
IC50 ([2]; PfCA line, 500 nM aTc, individual repeats): 31.3 nM and 37.6 nM
IC50 ([2]; Plasmodium falciparum, PfCA line, 1 nM, […] aTc or no aTc, individual repeats): 23 nM
IC50 ([2]; Plasmodium falciparum, PfCA line, 500 nM aTc, individual repeats): 29.2 nM
IC50 ([2]; Plasmodium falciparum, read-out: Mean IC50 with 500 nM aTc, PfCA line, 500 nM aTc): 33 nM
IC50 ([2]; Plasmodium falciparum, read-out: Mean IC50 with low (1 or […])/ no aTc, PfCA knockdown, no aTc): 26 nM
ATP consumption (PfAsnRS; 0.1 μM OSM-S-106, PfAsnRS + tRNA, 0 μM = 100, 0.1 µM): 82.5658 and 96.0922
ATP consumption (PfAsnRS; 0.1 μM OSM-S-106, PfAsnRS - tRNA, 0 μM = 100, 0.1 µM): 102.037 and 98.4072 and 106.756 and 97.2403 and 101.662
ATP consumption (PfAsnRS; 0.1 μM OSM-S-106, PfAsnRS, normalised to 1 (Fig 3C), 0.1 µM): 0.9643 and 0.9875
ATP consumption (PfAsnRS; 1 μM OSM-S-106, PfAsnRS + tRNA, 0 μM = 100, 1 µM): 57.1862 and 87.1941
ATP consumption (PfAsnRS; 1 μM OSM-S-106, PfAsnRS - tRNA, 0 μM = 100, 1 µM): 113.687 and 120.029 and 93.4234 and 93.1495 and 103.899
ATP consumption (PfAsnRS; 1 μM OSM-S-106, PfAsnRS, normalised to 1 (Fig 3C), 1 µM): 0.7028 and 0.7102
ATP consumption (PfAsnRS; 3 μM OSM-S-106, PfAsnRS, normalised to 1 (Fig 3C), 3 µM): 0.5774 and 0.6156
ATP consumption (PfAsnRS; 5 μM OSM-S-106, PfAsnRS + tRNA, 0 μM = 100, 5 µM): 38.7619 and 47.6862
ATP consumption (PfAsnRS; 5 μM OSM-S-106, PfAsnRS - tRNA, 0 μM = 100, 5 µM): 106.249 and 114.714 and 99.7656 and 89.6731 and 97.6484
ATP consumption (PfAsnRS; 10 μM OSM-S-106, PfAsnRS + tRNA, 0 μM = 100, 10 µM): 33.3781 and 42.1739
ATP consumption (PfAsnRS; 10 μM OSM-S-106, PfAsnRS - tRNA, 0 μM = 100, 10 µM): 118.679 and 119.307 and 117.388 and 114.394 and 95.1041 and 101.36
ATP consumption (PfAsnRS; 10 μM OSM-S-106, PfAsnRS, normalised to 1 (Fig 3C), 10 µM): 0.4326 and 0.4705
ATP consumption (PfAsnRS; 25 μM OSM-S-106, PfAsnRS + tRNA, 0 μM = 100, 25 µM): 31.8347 and 29.629
ATP consumption (PfAsnRS; 25 μM OSM-S-106, PfAsnRS - tRNA, 0 μM = 100, 25 µM): 125.392 and 106.541 and 117.104 and 104.95 and 102.467 and 90.9619
ATP consumption (PfAsnRS; 30 μM OSM-S-106, PfAsnRS, normalised to 1 (Fig 3C), 30 µM): 0.3585 and 0.3795
ATP consumption (PfAsnRS; 100 μM OSM-S-106, PfAsnRS + tRNA, 0 μM = 100, 100 µM): 21.4279 and 12.1476
ATP consumption (PfAsnRS; 100 μM OSM-S-106, PfAsnRS - tRNA, 0 μM = 100, 100 µM): 100.893 and 101.422 and 99.2831 and 94.8016 and 84.8517
ATP consumption (PfAsnRS; 100 μM OSM-S-106, PfAsnRS, normalised to 1 (Fig 3C), 100 µM): 0.3092 and 0.3431
ATP consumption (PfAsnRS; 200 μM OSM-S-106, PfAsnRS - tRNA, 0 μM = 100, 200 µM): 112.741 and 109.993 and 91.5345 and 106.529 and 72.1689
ATP consumption (PfAsnRS; 200 μM OSM-S-106, PfAsnRS, normalised to 1 (Fig 3C), 200 µM): 0.2731 and 0.3306
ATP consumption (PfAsnRS; 500 μM OSM-S-106, PfAsnRS - tRNA, 0 μM = 100, 500 µM): 107.256 and 120.979 and 131.723 and 125.52 and 90.3898 and 80.1015
IC50 (PfAsnRS; IC50, ATP consumption, 0.05 μM PfAsnRS, E. coli tRNA present, 37 °C, 1 h (Fig. 3C, D)): 6200 nM
IC50 (PfAsnRS; IC50, ATP consumption, minus E. coli tRNA, 0.5 μM enzyme, […] (Fig. 3B)): > 500000 nM
IC50 (PfAsnRS; IC50, ATP consumption, plus E. coli tRNA, 0.5 μM enzyme, 37 °C, […] (Fig. 3B)): 7300 nM
IC50 (PfAsnRS; concentration needed to induce 50% inhibition of ATP consumption): ~1000 nM
